In patent publication US20230374015A1, “INHIBITORS OF FIBROBLAST GROWTH FACTOR RECEPTOR KINASES” (Kinnate Biopharma Inc., priority 2020, published 2023):

Each compound was assayed against T1, FGFR2 (Homo sapiens, UniProt P21802) (assay: FGFR2 Kinase Protocol - Condition 1 (Reaction Biology HotSpot radiometric kinase assay)). Conditions: 20-min incubation of compound with kinase before ATP; poly[Glu:Tyr] (4:1) 0.2 mg/ml; ATP 100 micromolar; 2 hr room temperature.
Type: biochemical
Method: Example 1: FGFR2 Kinase Protocol—Condition 1
The Reaction Biology HotSpot assay platform (http://www.reactionbiology.com) was used to measure kinase/inhibitor interactions as described previously (Anastassiadis et al., 2011). In brief, for each reaction, kinase and substrate were mixed in a buffer containing 20 mM HEPES (pH 7.5), 10 mM MgCl2, 1 mM EGTA, 0.02% Brij35, 0.02 mg/mL BSA, 0.1 mM Na3VO4, 2 mM DTT, and 1% DMSO. All compounds were in powder form and freshly solubilized in DMSO for assays. Compounds were then added to each reaction mixture via acoustic dispense using an ECHO 550 nanoliter dispenser. For Human FGFR2 wildtype testing, a peptide substrate, poly[Glu:Tyr] (4:1) was used to promote the reaction at a concentration of 0.2 mg/ml. For Human FGFR2 (V564F) testing, a peptide substrate, poly[Glu:Tyr] (4:1) was used to promote the reaction at a concentration of 0.2 mg/ml. ATP concentration for all assays was maintained at 100 micromolar. Compounds were tested in 10-dose IC50 mode with a 3-fold serial dilution. After a 20-min incubation, ATP (Sigma-Aldrich, St. Louis, MO 63178) and [g33P] ATP (specific activity 10 microCi/microliter) purchased at PerkinElmer (Boston, MA, 02118 Cat #BLU 003H250UC) were added at a final total concentration of […]. Reactions were carried out at room temperature for 2 hr and spotted onto P81 ion exchange cellulose chromatography paper (Reaction Biology). Filter paper was washed in 0.75% phosphoric acid to remove unincorporated ATP. The percent remaining kinase activity relative to a vehicle-containing (DMSO) kinase reaction was calculated for each kinase/inhibitor pair. IC50 values were calculated using Dotmatics Knowledge Solutions Studies curve fitting (Dotmatics, Bishops Stortford, UK, CM23).

T1 sequence (P21802 22-821): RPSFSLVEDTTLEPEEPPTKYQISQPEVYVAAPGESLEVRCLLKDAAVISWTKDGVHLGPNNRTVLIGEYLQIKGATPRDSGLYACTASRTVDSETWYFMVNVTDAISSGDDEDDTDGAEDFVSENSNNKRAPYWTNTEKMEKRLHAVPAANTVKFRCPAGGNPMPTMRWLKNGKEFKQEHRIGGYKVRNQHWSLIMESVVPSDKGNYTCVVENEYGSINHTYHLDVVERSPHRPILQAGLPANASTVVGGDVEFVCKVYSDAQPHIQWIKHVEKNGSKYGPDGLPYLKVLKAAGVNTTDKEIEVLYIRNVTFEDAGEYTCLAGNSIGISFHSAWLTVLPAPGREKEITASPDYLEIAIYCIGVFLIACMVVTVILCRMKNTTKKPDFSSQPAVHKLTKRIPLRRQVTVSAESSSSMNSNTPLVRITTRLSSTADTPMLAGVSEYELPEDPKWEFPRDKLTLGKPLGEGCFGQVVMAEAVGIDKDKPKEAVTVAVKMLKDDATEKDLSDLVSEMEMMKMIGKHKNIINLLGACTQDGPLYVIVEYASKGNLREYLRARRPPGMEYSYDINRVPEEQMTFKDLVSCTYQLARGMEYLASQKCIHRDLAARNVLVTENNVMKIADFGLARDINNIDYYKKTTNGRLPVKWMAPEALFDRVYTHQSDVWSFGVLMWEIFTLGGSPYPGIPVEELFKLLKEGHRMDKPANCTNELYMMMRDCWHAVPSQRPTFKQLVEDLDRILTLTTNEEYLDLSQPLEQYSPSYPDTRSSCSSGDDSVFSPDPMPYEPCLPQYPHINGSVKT

`C=CC(=O)N1CC[C@H](n2nc(C#Cc3ccc4[nH]c(C)nc4c3)c3c(N)ncnc32)C1` [Example 7, (S)-1-(3-(4-amino-3-((2-methyl-1H-benzo[d]imidazol-5-yl)ethynyl)-1H-pyrazolo[3,4-d]pyrimidin-1-yl)pyrrolidin-1-yl)prop-2-en-1-one] and `C=CC(=O)N1CC[C@H](n2cc(C#Cc3ccc4[nH]c(C)nc4c3)c3c(N)ncnc32)C1` [Example 11, (S)-1-(3-(4-amino-5-((2-methyl-1H-benzo[d]imidazol-5-yl)ethynyl)-7H-pyrrolo[2,3-d]pyrimidin-7-yl)pyrrolidin-1-yl)prop-2-en-1-one] cannot be ordered by IC50: ≤ 100 nM for the first, ≤ 100 nM for the second.

`C=CC(=O)N1C[C@@H](n2nc(C#Cc3ccc4c(c3)nc(C)n4C)c3c(N)nccc32)C[C@@H]1COC` [Example 25, 1-((2R,4S)-4-(4-amino-3-((1,2-dimethyl-1H-benzo[d]imidazol-5-yl)ethynyl)-1H-pyrazolo[4,3-c]pyridin-1-yl)-2-(methoxymethyl)pyrrolidin-1-yl)prop-2-en-1-one] and `C=CC(=O)N1C[C@@H](n2nc(C#Cc3ccc4c(c3)nc(C)n4CC)c3c(N)nccc32)C[C@@H]1COC` [Example 21, 1-((2R,4S)-4-(4-amino-3-((1-ethyl-2-methyl-1H-benzo[d]imidazol-5-yl)ethynyl)-1H-pyrazolo[4,3-c]pyridin-1-yl)-2-(methoxymethyl)pyrrolidin-1-yl)prop-2-en-1-one] cannot be ordered by IC50: ≤ 100 nM for the first, ≤ 100 nM for the second.

`C=CC(=O)N1C[C@@H](n2nc(C#Cc3c(F)cc4nc(C)[nH]c4c3F)c3c(N)nccc32)C[C@@H]1COC` [Example 18, 1-((2R,4S)-4-(4-amino-3-((5,7-difluoro-2-methyl-1H-benzo[d]imidazol-6-yl)ethynyl)-1H-pyrazolo[4,3-c]pyridin-1-yl)-2-(methoxymethyl)pyrrolidin-1-yl)prop-2-en-1-one] and `C=CC(=O)N1C[C@@H](n2nc(C#Cc3c(F)cc4c(ncn4C)c3F)c3c(N)nccc32)C[C@@H]1COC` [Example 26, 1-((2R,4S)-4-(4-amino-3-((4,6-difluoro-1-methyl-1H-benzo[d]imidazol-5-yl)ethynyl)-1H-pyrazolo[4,3-c]pyridin-1-yl)-2-(methoxymethyl)pyrrolidin-1-yl)prop-2-en-1-one] cannot be ordered by IC50: ≤ 100 nM for the first, ≤ 100 nM for the second.

`C=CC(=O)N1C[C@@H](n2nc(C#Cc3ccc4c(c3)nc(C)n4C3CC3)c3c(N)nccc32)C[C@@H]1COC` [Example 17, 1-((2R,4S)-4-(4-amino-3-((1-cyclopropyl-2-methyl-1H-benzo[d]imidazol-5-yl)ethynyl)-1H-pyrazolo[4,3-c]pyridin-1-yl)-2-(methoxymethyl)pyrrolidin-1-yl)prop-2-en-1-one] and `C=CC(=O)N1C[C@@H](n2nc(C#Cc3ccc4c(c3)nc(C)n4C3CC3)c3c(N)ncnc32)C[C@@H]1COC` [Example 15, 1-((2R,4S)-4-(4-amino-3-((1-cyclopropyl-2-methyl-1H-benzo[d]imidazol-5-yl)ethynyl)-1H-pyrazolo[3,4-d]pyrimidin-1-yl)-2-(methoxymethyl)pyrrolidin-1-yl)prop-2-en-1-one] cannot be ordered by IC50: ≤ 100 nM for the first, ≤ 100 nM for the second.

`C=CC(=O)N1C[C@@H](n2nc(C#Cc3ccc4[nH]c(C)nc4c3)c3c(N)nccc32)C[C@@H]1COC` [Example 22, 1-((2R,4S)-4-(4-amino-3-((2-methyl-1H-benzo[d]imidazol-5-yl)ethynyl)-1H-pyrazolo[4,3-c]pyridin-1-yl)-2-(methoxymethyl)pyrrolidin-1-yl)prop-2-en-1-one] and `C=CC(=O)N1C[C@@H](n2nc(C#Cc3ccc4c(c3)ncn4C)c3c(N)nccc32)C[C@@H]1COC` [Example 19, 1-((2R,4S)-4-(4-amino-3-((1-methyl-1H-benzo[d]imidazol-5-yl)ethynyl)-1H-pyrazolo[4,3-c]pyridin-1-yl)-2-(methoxymethyl)pyrrolidin-1-yl)prop-2-en-1-one] cannot be ordered by IC50: ≤ 100 nM for the first, ≤ 100 nM for the second.

`C=CC(=O)N1C[C@@H](n2nc(C#Cc3ccc4ncn(C)c4c3)c3c(N)ncnc32)C[C@@H]1COC` [Example 9, 1-((2R,4S)-4-(4-amino-3-((1-methyl-1H-benzo[d]imidazol-6-yl)ethynyl)-1H-pyrazolo[3,4-d]pyrimidin-1-yl)-2-(methoxymethyl)pyrrolidin-1-yl)prop-2-en-1-one] and `C=CC(=O)N1C[C@@H](n2nc(C#Cc3ccc4nc(C)n(C)c4c3)c3c(N)ncnc32)C[C@@H]1COC` [Example 4, 1-((2R,4S)-4-(4-amino-3-((1,2-dimethyl-1H-benzo[d]imidazol-6-yl)ethynyl)-1H-pyrazolo[3,4-d]pyrimidin-1-yl)-2-(methoxymethyl)pyrrolidin-1-yl)prop-2-en-1-one] cannot be ordered by IC50: 100 to 1000 nM for the first, ≤ 100 nM for the second.

`C=CC(=O)N1C[C@@H](n2nc(C#Cc3ccc4[nH]cnc4c3)c3c(N)ncnc32)C[C@@H]1COC` [Example 5, 1-((2R,4S)-4-(3-((1H-benzo[d]imidazol-5-yl)ethynyl)-4-amino-1H-pyrazolo[3,4-d]pyrimidin-1-yl)-2-(methoxymethyl)pyrrolidin-1-yl)prop-2-en-1-one] and `C=CC(=O)N1C[C@@H](n2nc(C#Cc3ccc4[nH]ncc4c3)c3c(N)ncnc32)C[C@@H]1COC` [Example 2, 1-((2R,4S)-4-(3-((1H-indazol-5-yl)ethynyl)-4-amino-1H-pyrazolo[3,4-d]pyrimidin-1-yl)-2-(methoxymethyl)pyrrolidin-1-yl)prop-2-en-1-one] cannot be ordered by IC50: ≤ 100 nM for the first, ≤ 100 nM for the second.

`C=CC(=O)N1C[C@@H](n2nc(C#Cc3ccc4c(c3)nc(C)n4CC)c3c(N)ncnc32)C[C@@H]1COC` [Example 20, 1-((2R,4S)-4-(4-amino-3-((1-ethyl-2-methyl-1H-benzo[d]imidazol-5-yl)ethynyl)-1H-pyrazolo[3,4-d]pyrimidin-1-yl)-2-(methoxymethyl)pyrrolidin-1-yl)prop-2-en-1-one] and `C=CC(=O)N1C[C@@H](n2nc(C#Cc3ccc4cn[nH]c4c3)c3c(N)ncnc32)C[C@@H]1COC` [Example 14, 1-((2R,4S)-4-(3-((1H-indazol-6-yl)ethynyl)-4-amino-1H-pyrazolo[3,4-d]pyrimidin-1-yl)-2-(methoxymethyl)pyrrolidin-1-yl)prop-2-en-1-one] cannot be ordered by IC50: ≤ 100 nM for the first, ≤ 100 nM for the second.

`C=CC(=O)N1C[C@@H](n2nc(C#Cc3ccc4c(c3)ncn4C3CC3)c3c(N)nccc32)C[C@@H]1COC` [Example 24, 1-((2R,4S)-4-(4-amino-3-((1-cyclopropyl-1H-benzo[d]imidazol-5-yl)ethynyl)-1H-pyrazolo[4,3-c]pyridin-1-yl)-2-(methoxymethyl)pyrrolidin-1-yl)prop-2-en-1-one] and `C=CC(=O)N1C[C@@H](n2cc(C#Cc3ccc4c(c3)ncn4C)c3c(N)nccc32)C[C@@H]1COC` [Example 27, 1-((2R,4S)-4-(4-amino-3-((1-methyl-1H-benzo[d]imidazol-5-yl)ethynyl)-1H-pyrrolo[3,2-c]pyridin-1-yl)-2-(methoxymethyl)pyrrolidin-1-yl)prop-2-en-1-one] cannot be ordered by IC50: ≤ 100 nM for the first, ≤ 100 nM for the second.

For `C=CC(=O)N1C[C@@H](n2cc(C#Cc3ccc4nc(C)[nH]c4c3)c3c(N)ncnc32)C[C@@H]1COC` [Example 8, 1-[(2R,4S)-4-[4-amino-5-[2-(2-methyl-3H-1,3-benzodiazol-5-yl)ethynyl]pyrrolo[2,3-d]pyrimidin-7-yl]-2-(methoxymethyl)pyrrolidin-1-yl]prop-2-en-1-one], the IC50 was ≤ 100 nM.

These compounds were tested against T1, FGFR2 (assay: FGFR2 Kinase Protocol - Condition 2 (Reaction Biology HotSpot radiometric kinase assay, no preincubation)). Conditions: poly[Glu:Tyr] (4:1) 0.2 mg/ml, ATP 100 microM, 2 hr room temperature.
Type: biochemical
How it was run: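 Radiometric HotSpot format: FGFR2 (wildtype or V564F) with poly[Glu:Tyr] (4:1) at 0.2 mg/ml in HEPES pH 7.5 buffer with 1% DMSO; ATP plus [γ33P]ATP at 100 µM total, added without preincubation. Reactions ran 2 hr at room temperature, then filter-bound. IC50 from 10-dose, 3-fold series versus DMSO control.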

`C=CC(=O)N1C[C@@H](n2nc(C#Cc3cc4ncn(C5CC5)c4cc3F)c3c(N)ncnc32)C[C@@H]1CF` [Example 197, 1-((2R,4S)-4-(4-Amino-3-((1-cyclopropyl-6-fluoro-1H-benzo[d]imidazol-5-yl)ethynyl)-1H-pyrazolo[3,4-d]pyrimidin-1-yl)-2-(fluoromethyl)pyrrolidin-1-yl)prop-2-en-1-one] and `C=CC(=O)N1C[C@@H](n2nc(C#Cc3cc4ncn(C5CC5)c4cc3F)c3c(N)nccc32)C[C@@H]1COC` [Example 109, 1-[(2R,4S)-4-[4-Amino-3-[2-(1-cyclopropyl-6-fluoro-1,3-benzodiazol-5-yl)ethynyl]pyrazolo[4,3-c]pyridin-1-yl]-2-(methoxymethyl)pyrrolidin-1-yl]prop-2-en-1-one] cannot be ordered by IC50: ≤ 100 nM for the first, ≤ 100 nM for the second.

Work on `C=CC(=O)N1C[C@@H](n2nc(C#Cc3c(F)cc4nn(CC)cc4c3F)c3c(N)ncnc32)C[C@@H]1COC` [Example 49, 1-((2R,4S)-4-(4-amino-3-((2-ethyl-4,6-difluoro-2H-indazol-5-yl)ethynyl)-1H-pyrazolo[3,4-d]pyrimidin-1-yl)-2-(methoxymethyl)pyrrolidin-1-yl)prop-2-en-1-one] yielded an IC50 of 100 to 1000 nM.
